Experimental data from patent publication US20250000801A1, “DAROLUTAMIDE PHARMACEUTICAL COMPOSITION, PREPARATION METHOD THEREFOR AND USE THEREOF” (Sinotherapeutics Inc., priority 2021, published 2025).
In brackets after ≈: the same amount, converted by molar mass. Read-outs that look alike come from different tables or passages of the source.

Key:
[1] = Determination of dissolution, USP II method (paddle method); assay type: physicochemical; details: phosphate buffer pH 6.8, 1000 ml, 75 rpm
Description: In the following examples, the dissolution of the formulation is determined using the USP II method (paddle method) in the US Pharmacopoeia, with specific parameters as follows.
According to the above procedures, the dissolutions of Darolutamide in phosphate buffer, pH 6.8 were determined and the results were shown in Table 9.

physchem = details: 37.2 °C, pH 6.8, aqueous buffer, thermodynamic from solid
Description: About 200 mg of sample is weighted into a 50 ml shaking flask and then 50 ml of medium with pH of 6.8 is added. The shaking flask is mixed well and placed in a shaker. The shaker temperature is set as 37.2° C. and the rotation speed is set as 50 rpm. The sample is taken at 4 hours and 0.45 μM filter membrane is used for filtration to collect filtrate. High-performance liquid chromatography is used for determination with wavelength at 286 nm.

[2] = system: non-metastatic castration-resistant prostate cancer (nmCRPC); details: Phase III, cited from earlier work
[3] = cited from earlier work
[4] = cited from earlier work; remark: listed apart in the source
[5] = single dose pharmacokinetic study

SMILES: CC(O)c1cc(C(=O)N[C@@H](C)Cn2ccc(-c3ccc(C#N)c(Cl)c3)n2)n[nH]1 (stereo partly drawn) [Darolutamide, N-[(1S)-2-[3-(3-chloro-4-cyanophenyl)-1H-pyrazol-1-yl]-1-methylethyl]-5-(1-hydroxyethyl)-1H-pyrazole-3-carboxamide]
- Dissolution ([1]; 5 min): 7%
- Dissolution ([1]; 15 min): 10%
- Dissolution ([1]; 30 min): 9%
- Dissolution ([1]; 45 min): 12%
- solubility at 4 h (physchem): 24.9 µg/mL (≈ 62.4 µM)
- reduction of the risk of disease metastasis or death ([2]; Darolutamide combined with ADT vs placebo combined with ADT): 59%
- median metastasis free survival (MFS) ([2]; Darolutamide combined with ADT): 40.4 months
- BCS classification ([3]; low solubility and high permeability): BCS Class II
- solubility in aqueous media ([3]; pH 1-6.8): 14 to 23 µg/mL
- bioavailability ([4]; 300 mg, fasting state): about 30%
- coefficient of variation (CV %) of AUC(0-4) ([4]; administration dosage of 300 mg): 69.6%
- coefficient of variation (CV %) of AUC(0-4) ([4]; administration dosage of 600 mg): 41.4%
- increase of AUC(0-4) in feeding state ([4]; after administration of 300 mg or 600 mg): 2.5 fold
- increase of bioavailability in feeding state ([4]; single dose administration of 300 mg): 2.5 fold
- increase of bioavailability in feeding state ([4]; single dose administration of 600 mg): 2.8 fold
- end half-life [4, 5]: 10 to 15 h
- median Tmax [4, 5]: 3 to 6 h
